Experimental data published in article PMC5404560, “Towards Selective Mycobacterial ClpP1P2 Inhibitors with Reduced Activity against the Human Proteasome” (Antimicrobial Agents and Chemotherapy, 2017).

Experiments:
[1] = Human liver microsome stability; assay type: in vitro ADME; settings: liver microsomes, read-out: HLM t1/2
Procedure: (§1) A parallel artificial-membrane permeability assay (PAMPA) and mouse liver microsome (MLM), human liver microsome (HLM), aqueous solubility, Log D, protein binding, and cytochrome P450 2D6 and 3A4 assays were carried out at Piramal Pharma Solutions.

[2] = target: T1, CYP450 2D6 (Homo sapiens, UniProt P10635); assay: Recombinant cytochrome P450 enzyme assay, 2D6; assay type: in vitro ADME; settings: highest concentration tested 10 μM
T1 construct: Piramal Pharma Solutions (contract laboratory)
Procedure: as §1

T1 sequence (P10635 whole entry): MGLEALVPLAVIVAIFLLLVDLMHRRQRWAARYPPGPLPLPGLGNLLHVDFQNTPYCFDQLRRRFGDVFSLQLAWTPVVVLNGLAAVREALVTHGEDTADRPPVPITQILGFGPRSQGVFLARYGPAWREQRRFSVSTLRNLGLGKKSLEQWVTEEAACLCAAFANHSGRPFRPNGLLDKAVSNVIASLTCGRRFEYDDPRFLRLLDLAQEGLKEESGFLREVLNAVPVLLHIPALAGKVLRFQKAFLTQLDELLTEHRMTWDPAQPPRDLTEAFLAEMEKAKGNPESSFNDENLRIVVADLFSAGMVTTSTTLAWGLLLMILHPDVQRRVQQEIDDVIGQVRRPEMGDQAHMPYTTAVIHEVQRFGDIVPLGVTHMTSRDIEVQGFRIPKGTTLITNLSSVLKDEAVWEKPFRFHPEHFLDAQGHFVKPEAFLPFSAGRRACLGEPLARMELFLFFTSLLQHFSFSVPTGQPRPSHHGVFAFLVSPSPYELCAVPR

For `O=C(N[C@@H](Cc1ccccn1)C(=O)N[C@@H](CCc1ccccc1)B(O)O)c1cnccn1` [Compound 58, ((R)-3-phenyl-1-((S)-2-(pyrazine-2-carboxamido)-3-(pyridin-2-yl)propanamido)propyl)boronic acid], the half-life [1] was greater than 24 min and the IC50 [2] was greater than 10 µM.
